Source: US12577272B2, “CD73 inhibitors” (ORIC Pharmaceuticals, Inc., priority 2019, dated 2026)

Target: T1, CD73 (Homo sapiens, UniProt P21589)
T1 sequence (P21589 27-549): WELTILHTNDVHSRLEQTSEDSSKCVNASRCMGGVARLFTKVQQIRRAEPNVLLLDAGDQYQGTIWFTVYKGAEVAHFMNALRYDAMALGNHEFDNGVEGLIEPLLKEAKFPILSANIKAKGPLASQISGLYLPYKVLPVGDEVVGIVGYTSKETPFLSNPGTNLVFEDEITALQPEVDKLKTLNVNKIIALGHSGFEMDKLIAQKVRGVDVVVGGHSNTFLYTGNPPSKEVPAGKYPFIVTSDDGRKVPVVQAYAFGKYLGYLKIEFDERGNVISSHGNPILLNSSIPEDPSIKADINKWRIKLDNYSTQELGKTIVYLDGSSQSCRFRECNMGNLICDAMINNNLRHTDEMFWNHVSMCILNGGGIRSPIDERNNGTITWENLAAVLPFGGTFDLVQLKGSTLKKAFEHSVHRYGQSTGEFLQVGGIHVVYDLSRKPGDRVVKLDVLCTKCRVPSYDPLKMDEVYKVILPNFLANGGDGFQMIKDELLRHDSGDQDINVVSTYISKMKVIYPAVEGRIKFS
Test: Biochemical Assay: inhibition of CD73 activity (AMP hydrolysis, Malachite Green readout)
Conditions: CD73 0.3208 nM, AMP 15 μM, 25 mM Tris-HCl pH 7.4, 10 min reaction at RT; read-out: CD73_Biochem
Procedure: Example A1: Biochemical Assay
Assay Reaction Conditions
• Assay Volume: 70 μl • Reaction Volume: 50 μl • CD73: 0.3208 nM • AMP: 15 μM • Assay Buffer: 2 5 mM Tris-HCL, pH 7.4, 0.01% Brij-35, 0.01% BSA, 5 mM MgCl2 Assay Procedure:
Made dose titration of testing compounds in assay buffer, 10 points ½ log titrations in duplicates starting at 100 μM.
Added 25 μl of CD73 to each well for a final concentration of 320 pM.
Incubated at RT for 15 min.
Added 25 μl of AMP to each well for a final concentration of 15 μM.
Incubated at RT for 10 min.
Added 10 μl of Malachite Green Reagent A, incubate at RT for 10 min.
Added 10 μl of Malachite Green Reagent B, incubate at RT for 45 min.
Read the Absorbance on Envision plate reader using excitation filter: Cy5 […].
The ability of the compounds disclosed herein to inhibit CD73 activity was quantified and the respective IC50 values were determined. Table 2 provides the biochemical IC50 values of compounds disclosed herein.

IC50: ≤ 10 nM
SMILES: COCCOCC(COCc1nnn[nH]1)(OC[C@H]1O[C@@H](n2ncc3c(NC4CCCC4)nc(Cl)nc32)[C@H](O)[C@@H]1O)P(=O)(O)O (single isomer, unassigned) [Example 2]
